According to publication PMC12680861, “Comparative analysis of LJ-4378 and tirzepatide in mouse models of obesity and weight regain” (Archives of Pharmacal Research, 2025):
Read-outs that look alike come from different tables or passages of the source.

Experiments:
CYP1A2 = molecular target: T1, CYP1A2 (Homo sapiens, UniProt P05177); assay: CYP enzyme inhibition in pooled human liver microsomes (phenacetin substrate); conditions: human, pooled human liver microsomes, pH 7.4
T1 sequence (P05177 1-516): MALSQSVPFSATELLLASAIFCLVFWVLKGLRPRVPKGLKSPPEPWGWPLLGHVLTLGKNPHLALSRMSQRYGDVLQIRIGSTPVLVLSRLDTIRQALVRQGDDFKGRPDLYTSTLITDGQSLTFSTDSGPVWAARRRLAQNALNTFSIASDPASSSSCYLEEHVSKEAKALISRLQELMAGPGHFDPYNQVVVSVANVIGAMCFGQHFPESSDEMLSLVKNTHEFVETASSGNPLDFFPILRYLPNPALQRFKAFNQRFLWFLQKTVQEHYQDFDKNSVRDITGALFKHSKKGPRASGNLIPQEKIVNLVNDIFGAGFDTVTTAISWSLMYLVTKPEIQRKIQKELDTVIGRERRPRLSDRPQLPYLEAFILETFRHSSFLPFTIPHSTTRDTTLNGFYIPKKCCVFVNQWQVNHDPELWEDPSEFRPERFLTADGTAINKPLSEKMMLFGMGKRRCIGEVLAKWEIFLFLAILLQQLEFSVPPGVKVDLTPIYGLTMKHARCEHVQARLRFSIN
Experimental: (§1) Cytochrome 450 (CYP) enzyme inhibition was evaluated using pooled human liver microsomes (Corning, #452117). […] Substrates and corresponding metabolites for each CYP isoform were as follows: phenacetin and acetaminophen for CYP1A2 (Sigma Aldrich, #77440 and A7085, respectively), diclofenac and 4'-hydroxydiclofenac for CYP2C9 (Sigma Aldrich, D6899; TRC, H825225), S-mephenytoin and 4'-hydroxymephenytoin for CYP2C19 (Sigma Aldrich, UC175; Santacruz, sc210197), dextromethorphan and dextrorphan for CYP2D6 (Sigma Aldrich, #81091 and UC205), and midazolam and 1'-hydroxymidazolam for CYP3A4 (KFDA; Sigma Aldrich, UC430).
(§2) Samples were preincubated at 37 °C for 5 min, and the reaction was initiated by the addition of the NADPH regeneration system, followed by incubation at 37 °C for 15 min. The reaction was terminated by adding acetonitrile containing the internal standard, and centrifuged at 15,000 rpm for 5 min at 4 °C. The supernatant was analyzed by LC–MS/MS using a Nexera XR system (Shimadzu, Japan) coupled with a TSQ Vantage mass spectrometer (Thermo, USA). […] Metabolites were quantified in multiple reaction monitoring (MRM) mode with Xcalibur software (version 4.4).
(§3) All experiments were performed in duplicate with variability ≤ 15%. The percent activity of each CYP enzyme was calculated based on metabolite formation relative to the no-inhibitor control.

CYP2C19 = CYP2C19 (Homo sapiens, UniProt P33261); assay: CYP enzyme inhibition in pooled human liver microsomes (S-mephenytoin substrate); conditions: human, pooled human liver microsomes, pH 7.4
Experimental: as §1, §2, §3

CYP2C9 = CYP2C9 (Homo sapiens, UniProt P11712); assay: CYP enzyme inhibition in pooled human liver microsomes (diclofenac substrate); conditions: human, pooled human liver microsomes, pH 7.4
Experimental: as §1, §2, §3

Plasma stability assay [1] = type: in vitro ADME, rat; conditions: rat, plasma (100%, sodium citrate), 37 °C; for remaining at 0.5 h, 10 μM: 30 min, read-out: % Remaining compound, Rat plasma 30 min; for remaining at 2 h, 10 μM: 120 min, read-out: % Remaining compound, Rat plasma 120 min
Experimental: (§4) The plasma stability of LJ-4378 was evaluated using 100% plasma obtained from human (Biochemed, BC22089NCP, sodium citrate), rat (Innovative, IRT-N, sodium citrate), and mouse (Biochemed, 029-APSC-MP, sodium citrate). 10 Μm of LJ-4378 was added to the plasma, and samples were incubated at 37 °C for 0, 30, and 120 min. At each time point, an aliquot of the plasma was removed and mixed with acetonitrile containing the internal standard, chlorpropamide (TRC, C424800). […] The supernatant was injected into the LC–MS/MS system for quantification of the remaining compound. Analysis was performed using a Nexera XR system (Shimadzu, Japan) with a TSQ Vantage mass spectrometer (Thermo, USA). […] Data acquisition was conducted in MRM mode using Xcalibur software (version 4.4). All experiments were performed in duplicate with a deviation within 15%, and the percentage of compound remaining (% Remaining) at each time point was calculated relative to the non-incubated control sample. For quality control, procaine and enalapril (each at 10 μM) were used as reference compounds and were confirmed to fall within acceptable ranges.

Plasma stability assay [2] = type: in vitro ADME, mouse; conditions: mouse, plasma (100%, sodium citrate), 37 °C; for remaining at 0.5 h, 10 μM: 30 min, read-out: % Remaining compound, Mouse plasma 30 min; for remaining at 2 h, 10 μM: 120 min, read-out: % Remaining compound, Mouse plasma 120 min
Experimental: as §4

Plasma stability assay [3] = type: in vitro ADME, human; conditions: human, plasma (100%, sodium citrate), 37 °C
Experimental: as §4

[4] = Plasma protein binding, Rapid Equilibrium Dialysis (RED); type: in vitro ADME, mouse; conditions: mouse, plasma (100%, sodium citrate), pH 7.4, 37 °C, read-out: Plasma free fraction (% Free), Mouse
Experimental: (§5) The plasma protein binding of LJ-4378 was evaluated using the Rapid Equilibrium Dialysis (RED) method with 100% plasma from human (Biochemed, BC22089NCP), rat (Innovative, IRT-N), and mouse (Biochemed, 029-APSC-MP), all treated with sodium citrate as an anticoagulant. The RED device (ThermoFisher Scientific, #89809) and reusable base plate (ThermoFisher Scientific, #89811) were used with an 8 K MWCO membrane. Test compounds were added to plasma at a final concentration of 10 μM and dialyzed against phosphate-buffered saline (PBS, pH 7.4; Hyclone, #SH30256.01) at 37 °C for 4 h. After incubation, equal volumes of plasma and PBS samples were mixed with blank PBS and blank plasma, respectively, followed by the addition of acetonitrile containing chlorpropamide (TRC, C424800) as the internal standard. […] All measurements were performed in duplicate with a deviation of less than 15% between replicates. The free fraction (% Free) was calculated as (concentration in buffer chamber/concentration in plasma chamber) × 100, and the bound fraction (% Bound) was obtained by subtracting % Free from 100. In cases where measurements were unstable, deviations greater than 15% were allowed.

[5] = as above; type: in vitro ADME, rat; conditions: rat, plasma (100%, sodium citrate), pH 7.4, 37 °C, read-out: Plasma free fraction (% Free), Rat
Experimental: as §5

[6] = as above; type: in vitro ADME, human; conditions: human, plasma (100%, sodium citrate), pH 7.4, 37 °C, read-out: Plasma free fraction (% Free), Human
Experimental: as §5

Sequence of CYP2C9 (P11712 whole entry): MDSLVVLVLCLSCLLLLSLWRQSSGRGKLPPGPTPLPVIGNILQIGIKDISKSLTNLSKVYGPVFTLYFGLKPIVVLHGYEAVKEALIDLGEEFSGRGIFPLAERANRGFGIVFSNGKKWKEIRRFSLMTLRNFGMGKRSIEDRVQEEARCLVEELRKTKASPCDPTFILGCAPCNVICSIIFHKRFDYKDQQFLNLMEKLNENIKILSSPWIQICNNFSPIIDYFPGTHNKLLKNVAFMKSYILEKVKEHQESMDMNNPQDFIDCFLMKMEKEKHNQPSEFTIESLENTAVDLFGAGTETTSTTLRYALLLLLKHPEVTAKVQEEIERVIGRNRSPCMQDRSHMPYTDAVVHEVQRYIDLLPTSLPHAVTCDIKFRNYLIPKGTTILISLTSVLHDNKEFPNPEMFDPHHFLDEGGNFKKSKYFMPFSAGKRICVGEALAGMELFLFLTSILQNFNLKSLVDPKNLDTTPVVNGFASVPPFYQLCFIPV
Sequence of CYP2C19 (P33261 whole entry): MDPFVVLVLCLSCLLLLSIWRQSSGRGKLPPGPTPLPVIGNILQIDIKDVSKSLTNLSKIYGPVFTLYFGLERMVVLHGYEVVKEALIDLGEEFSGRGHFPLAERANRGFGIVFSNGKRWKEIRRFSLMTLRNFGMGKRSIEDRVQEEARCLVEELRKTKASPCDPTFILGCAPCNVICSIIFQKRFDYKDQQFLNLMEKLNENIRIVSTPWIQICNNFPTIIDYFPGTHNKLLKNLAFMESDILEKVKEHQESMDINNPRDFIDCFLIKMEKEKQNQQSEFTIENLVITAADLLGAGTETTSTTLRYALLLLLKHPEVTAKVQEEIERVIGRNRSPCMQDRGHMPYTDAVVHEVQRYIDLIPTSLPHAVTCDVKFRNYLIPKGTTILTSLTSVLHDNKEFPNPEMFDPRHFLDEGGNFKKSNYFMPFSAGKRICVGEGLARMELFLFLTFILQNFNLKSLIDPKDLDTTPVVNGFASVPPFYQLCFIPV

Row | SMILES | remaining at 0.5 h, 10 μM (Plasma stability assay [1]) [%] | remaining at 2 h, 10 μM (Plasma stability assay [1]) [%] | remaining at 0.5 h, 10 μM (Plasma stability assay [2]) [%] | remaining at 2 h, 10 μM (Plasma stability assay [2]) [%] | fraction unbound at 4 h, 10 μM [4] | fraction unbound at 4 h, 10 μM [5] | fraction unbound at 4 h, 10 μM [6] | also measured
1 | CC(=O)N1CCN(c2ccc(OCC3COC(Cn4ccnc4)(c4ccc(Cl)cc4Cl)O3)cc2)CC1 (stereo not drawn) [Ketoconazole, ketoconazole, reference compound] | – | – | – | – | – | – | – | activity at 15 min, 10 µM (CYP1A2): 98.3%; activity at 15 min, 10 µM (CYP2C19): > 100%; activity at 15 min, 10 µM (CYP2C9): 98%
2 | CC(=O)CC(c1ccccc1)c1c(O)c2ccccc2oc1=O (stereo not drawn) [Warfarin] | – | – | – | – | 0.062 | 0.01 | 0.006 | –

The next lines start with results.

Row | remaining at 0.5 h, 10 μM (Plasma stability assay [1]) [%] | remaining at 2 h, 10 μM (Plasma stability assay [1]) [%] | remaining at 0.5 h, 10 μM (Plasma stability assay [2]) [%] | remaining at 2 h, 10 μM (Plasma stability assay [2]) [%] | fraction unbound at 4 h, 10 μM [4] | fraction unbound at 4 h, 10 μM [5] | fraction unbound at 4 h, 10 μM [6] | SMILES | also measured
3 | 34.5 | 1.4 | 66 | 26.3 | – | – | – | CCOC(=O)[C@H](CCc1ccccc1)N[C@@H](C)C(=O)N1CCC[C@H]1C(=O)O [Enalapril, enalapril] | remaining at 0.5 h, 10 μM (Plasma stability assay [3]; 30 min, read-out: % Remaining compound, Human plasma 30 min): > 100%; remaining at 2 h, 10 μM (Plasma stability assay [3]; 120 min, read-out: % Remaining compound, Human plasma 120 min): 95.9%
4 | 85.2 | 45.2 | 7 | < 1 | – | – | – | CCN(CC)CCOC(=O)c1ccc(N)cc1 [Procaine, procaine] | remaining at 5 min, 10 μM (Plasma stability assay [3]; 5 min (printed in the 30 min column), read-out: % Remaining compound, Human plasma 5 min): 1.2%; remaining at 10 min, 10 μM (Plasma stability assay [3]; 10 min (printed in the 120 min column), read-out: % Remaining compound, Human plasma 10 min): < 1%
5 | – | – | – | – | 0.297 | 0.222 | 0.359 | C[C@@H]1C[C@H]2[C@@H]3CCC4=CC(=O)C=C[C@]4(C)[C@@]3(F)[C@@H](O)C[C@]2(C)[C@@]1(O)C(=O)CO [Dexamethasone] | –
